# In US9932627B2, “Method for determination of the length of the G-tail sequence and kit for the method” (HIROSHIMA UNIVERSITY, priority 2005, dated 2018):
# Assays:
# MCF-7 cancer cell [1] = test: Entire telomere length by telomere HPA on denatured DNA (JP 2001-95586, Comparative Example); format: cell-based; conditions: treated with telomestatin (5 μm) for 48 hours, denatured DNA 0.5 μg, control C = 4000
# From the text: (§1) The dominant negative allelic gene (TRF2^ΔBΔM) was infected to various cells (HeLa cancer cell, SiHa cancer cell, MCF-7 cancer cell, MRC-5-hTERT normal fibroblast, and 90p normal mammary epithelial cell) according to a method similar to that in <9-3>; The nondenatured DNA was isolated from each cell (HeLa cancer cell, SiHa cancer cell, MCF-7 cancer cell, MRC-5-hTERT normal fibroblast, and 90p normal mammary epithelial cell) according to a method similar to that in <4-2>; The nondenatured DNA (5 μg) was used in the G tail measuring method according to the present invention for measurement of the G tail length; and, as a Comparative Example, the measuring method described in Japanese Unexamined Patent Publication No. 2001-95586 was applied to each denatured DNA (0.5 μg) for measurement of the entire telomere length. ExoI treatment was performed similarly to the method described in <4-3> and culture of the cells used, similarly to the method described in <9-2>.
# (§2) FIG. 11a is a graph showing the results of measuring G tail by the measuring method according to the invention. FIG. 11b is a graph showing the results of measuring the total telomere length by the measuring method described in Japanese Unexamined Patent Publication No. 2001-95586 as a Comparative Example. In FIG. 11a, “C” represents a control; “T” represents a cell treated with a G tail-shortening medicine telomestatin (5 μm) for 48 hours; represents a ExoI-treated cell; and − represents an untreated cell. […] In FIG. 11b, “C” represents a control; and “T” represents a cell previously treated with a G tail-shortening medicine telomestatin (5 μm) for 48 hours.
# (§3) Thus apparently in the measuring method described in Patent Document 1 (Japanese Unexamined Patent Publication No. 2001-95586), the G tail length gives signal intensity only at a noise level within the range of the operation and measurement error, prohibiting G tail measurement. Then, the values on the ordinate in FIG. 11a were converted to average G tail lengths by using the calibration curve shown in FIG. 2 and the values on the ordinate in FIG. 11b to the entire telomere lengths, to give the following results shown in Table 4.
# [2] = tested on: 90p normal mammary epithelial cell; test: as above; format: cell-based; conditions: treated with telomestatin (5 μm) for 48 hours, denatured DNA 0.5 μg, control C = 3500
# From the text: as §1, §2, §3
# [3] = tested on: MRC-5-hTERT normal fibroblast; test: as above; format: cell-based; conditions: treated with telomestatin (5 μm) for 48 hours, denatured DNA 0.5 μg, control C = 6800
# From the text: as §1, §2, §3
# HeLa cancer cell [4] = test: as above; format: cell-based; conditions: treated with telomestatin (5 μm) for 48 hours, denatured DNA 0.5 μg, control C = 4700
# From the text: as §1, §2, §3
# SiHa cancer cell [5] = test: as above; format: cell-based, human; conditions: treated with telomestatin (5 μm) for 48 hours, denatured DNA 0.5 μg, control C = 4500
# From the text: as §1
# FIG. 11a is a graph showing the results of measuring G tail by the measuring method according to the invention. FIG. 11b is a graph showing the results of measuring the total telomere length by the measuring method described in Japanese Unexamined Patent Publication No. 2001-95586 as a Comparative Example. […]
# SiHa cancer cell [6] = test: G tail length measurement by G tail HPA on nondenatured genomic DNA of treated cells; format: cell-based, human; conditions: treated with telomestatin (5 μm) for 48 hours, nondenatured DNA 5 μg, control C = 220
# Method: (§4) The hydrolysis of the AE in an unhybridized probe was performed by charging 300 μL of a hydrolysis buffer (0.6 mol/L tetrasodium borate buffer containing 50 mL/L of Triton X-100, pH 8.5) into each reaction tube, stirring the mixture vigorously with a Vortex mixer, and incubating the mixture at 60° C. for 10 minutes. The AE in the hybridized probe was not hydrolyzed under the above-described condition. These tubes were cooled on ice for 1 minute or more, and the chemiluminescence in each tube was measured with a luminometer (trade name: Leader 1, manufactured by Gene Probe Inc.) for 2 seconds.
# For the confirmation of nondenatured genomic DNA dose response by the measuring method according to the invention, SiHa cancer cell line-derived nondenatured genomic DNA samples in various amounts (1 μg, 3 μg, 5 μg, 10 μg and 20 μg) and the AE-labeled G tail HPA probe in an amount of 3×10^6 rlu were hybridized with each other. Specifically for detection of the telomere 3′-tail (G tail) in genomic DNA, the total amount of the DNA solution in a Falcon 352053 tube (trade name) was adjusted to 100 μL with sterile water or a TE buffer (10 mM Tris/HCl, 1 mM EDTA, pH 8.0). […]
# MCF-7 cancer cell [7] = test: as above; format: cell-based; conditions: treated with telomestatin (5 μm) for 48 hours, nondenatured DNA 5 μg, control C = 212
# Method: as §4
# (§5) For the confirmation of nondenatured genomic DNA dose response by the measuring method according to the invention, SiHa cancer cell line-derived nondenatured genomic DNA samples in various amounts (1 μg, 3 μg, 5 μg, 10 μg and 20 μg) and the AE-labeled G tail HPA probe in an amount of 3×10^6 rlu were hybridized with each other. Specifically for detection of the telomere 3′-tail (G tail) in genomic DNA, the total amount of the DNA solution in a Falcon 352053 tube (trade name) was adjusted to 100 μL with sterile water or a TE buffer (10 mM Tris/HCl, 1 mM EDTA, pH 8.0). The AE-labeled G tail HPA probe in an amount of 3×10^6 rlu dissolved in 100-μL of the hybridization buffer was added to the DNA solution, and the mixture was stirred thoroughly with a Vortex mixer and incubated at 60° C. for 20 minutes. The hydrolysis of the AE in unhybridized probe and the detection of the chemiluminescence were performed under a condition similar to that in <1-2>.
# (§6) In the present invention, the nondenatured genomic DNA may not be isolated for use, but the nondenatured genomic DNA used in the confirmation test <4-1> was previously isolated in the following manner: The nondenatured genomic DNA used for G tail length measurement was isolated from each cell line by using the phenol-chloroform extraction method. Specifically, cells were centrifuged in an Eppendorf-micro centrifuge tube at 6,000 rpm and 4° C. for 5 minutes, to give a pellet in the microtube. The pellet was washed once with PBS(−) and resuspended in an extraction buffer containing 10 mM Tris buffer (pH 7.6), 150 mM NaCl and NP-40, to a final concentration of 0.5%. After proteinase K digestion, phenol-chloroform extraction was performed twice. The genomic DNA was precipitated with ethanol, treated with RNase A, and then, dissolved in a TE buffer. […]
# [8] = tested on: 90p normal mammary epithelial cell; test: as above; format: cell-based; conditions: treated with telomestatin (5 μm) for 48 hours, nondenatured DNA 5 μg, control C = 98
# Method: as §4, §5, §6
# [9] = tested on: MRC-5-hTERT normal fibroblast; test: as above; format: cell-based; conditions: treated with telomestatin (5 μm) for 48 hours, nondenatured DNA 5 μg, control C = 96
# Method: as §4, §5, §6
# HeLa cancer cell [10] = test: as above; format: cell-based; conditions: treated with telomestatin (5 μm) for 48 hours, nondenatured DNA 5 μg, control C = 126
# Method: as §4, §5, §6
smiles,measurement,setting,value
Cc1oc2nc1-c1nc(co1)-c1nc(co1)-c1nc(co1)-c1nc(co1)-c1nc(co1)C1=NC(CS1)c1nc-2c(C)o1 (stereo not shown) [telomestatin],Entire telomere length (nt),MCF-7 cancer cell [1],3900 nt
same,Entire telomere length (nt),[2],3450 nt
same,Entire telomere length (nt),[3],6750 nt
same,Entire telomere length (nt),HeLa cancer cell [4],4600 nt
same,Entire telomere length (nt),SiHa cancer cell [5],4600 nt
same,Average G tail length (nt),SiHa cancer cell [6],121 nt
same,Average G tail length (nt),MCF-7 cancer cell [7],162 nt
same,Average G tail length (nt),[8],96 nt
same,Average G tail length (nt),[9],96.5 nt
same,Average G tail length (nt),HeLa cancer cell [10],89 nt
